Reference: the kinase profiling compilation of Christmann-Franck et al. (2016)
Several values for one entry are separate records, joined by “and”; a condition that tells them apart may be missing. Equal entries are not always repeated.

How the values were obtained:
Assay in all cases: Caliper, Mobility shift assay off-chip
NEK1 (human) = NEK1 (human) (UniProt Q96PY6)
IRAK4 (human) = IRAK4 (human) (UniProt Q9NWZ3)
RPS6KB1 (human) = RPS6KB1 (human) (UniProt P23443)
AURKA (human) = AURKA (human) (UniProt O14965)
ROS1 (human) = ROS1 (human) (UniProt P08922)
ROS1 (human), sequence (P08922 whole entry, looked up): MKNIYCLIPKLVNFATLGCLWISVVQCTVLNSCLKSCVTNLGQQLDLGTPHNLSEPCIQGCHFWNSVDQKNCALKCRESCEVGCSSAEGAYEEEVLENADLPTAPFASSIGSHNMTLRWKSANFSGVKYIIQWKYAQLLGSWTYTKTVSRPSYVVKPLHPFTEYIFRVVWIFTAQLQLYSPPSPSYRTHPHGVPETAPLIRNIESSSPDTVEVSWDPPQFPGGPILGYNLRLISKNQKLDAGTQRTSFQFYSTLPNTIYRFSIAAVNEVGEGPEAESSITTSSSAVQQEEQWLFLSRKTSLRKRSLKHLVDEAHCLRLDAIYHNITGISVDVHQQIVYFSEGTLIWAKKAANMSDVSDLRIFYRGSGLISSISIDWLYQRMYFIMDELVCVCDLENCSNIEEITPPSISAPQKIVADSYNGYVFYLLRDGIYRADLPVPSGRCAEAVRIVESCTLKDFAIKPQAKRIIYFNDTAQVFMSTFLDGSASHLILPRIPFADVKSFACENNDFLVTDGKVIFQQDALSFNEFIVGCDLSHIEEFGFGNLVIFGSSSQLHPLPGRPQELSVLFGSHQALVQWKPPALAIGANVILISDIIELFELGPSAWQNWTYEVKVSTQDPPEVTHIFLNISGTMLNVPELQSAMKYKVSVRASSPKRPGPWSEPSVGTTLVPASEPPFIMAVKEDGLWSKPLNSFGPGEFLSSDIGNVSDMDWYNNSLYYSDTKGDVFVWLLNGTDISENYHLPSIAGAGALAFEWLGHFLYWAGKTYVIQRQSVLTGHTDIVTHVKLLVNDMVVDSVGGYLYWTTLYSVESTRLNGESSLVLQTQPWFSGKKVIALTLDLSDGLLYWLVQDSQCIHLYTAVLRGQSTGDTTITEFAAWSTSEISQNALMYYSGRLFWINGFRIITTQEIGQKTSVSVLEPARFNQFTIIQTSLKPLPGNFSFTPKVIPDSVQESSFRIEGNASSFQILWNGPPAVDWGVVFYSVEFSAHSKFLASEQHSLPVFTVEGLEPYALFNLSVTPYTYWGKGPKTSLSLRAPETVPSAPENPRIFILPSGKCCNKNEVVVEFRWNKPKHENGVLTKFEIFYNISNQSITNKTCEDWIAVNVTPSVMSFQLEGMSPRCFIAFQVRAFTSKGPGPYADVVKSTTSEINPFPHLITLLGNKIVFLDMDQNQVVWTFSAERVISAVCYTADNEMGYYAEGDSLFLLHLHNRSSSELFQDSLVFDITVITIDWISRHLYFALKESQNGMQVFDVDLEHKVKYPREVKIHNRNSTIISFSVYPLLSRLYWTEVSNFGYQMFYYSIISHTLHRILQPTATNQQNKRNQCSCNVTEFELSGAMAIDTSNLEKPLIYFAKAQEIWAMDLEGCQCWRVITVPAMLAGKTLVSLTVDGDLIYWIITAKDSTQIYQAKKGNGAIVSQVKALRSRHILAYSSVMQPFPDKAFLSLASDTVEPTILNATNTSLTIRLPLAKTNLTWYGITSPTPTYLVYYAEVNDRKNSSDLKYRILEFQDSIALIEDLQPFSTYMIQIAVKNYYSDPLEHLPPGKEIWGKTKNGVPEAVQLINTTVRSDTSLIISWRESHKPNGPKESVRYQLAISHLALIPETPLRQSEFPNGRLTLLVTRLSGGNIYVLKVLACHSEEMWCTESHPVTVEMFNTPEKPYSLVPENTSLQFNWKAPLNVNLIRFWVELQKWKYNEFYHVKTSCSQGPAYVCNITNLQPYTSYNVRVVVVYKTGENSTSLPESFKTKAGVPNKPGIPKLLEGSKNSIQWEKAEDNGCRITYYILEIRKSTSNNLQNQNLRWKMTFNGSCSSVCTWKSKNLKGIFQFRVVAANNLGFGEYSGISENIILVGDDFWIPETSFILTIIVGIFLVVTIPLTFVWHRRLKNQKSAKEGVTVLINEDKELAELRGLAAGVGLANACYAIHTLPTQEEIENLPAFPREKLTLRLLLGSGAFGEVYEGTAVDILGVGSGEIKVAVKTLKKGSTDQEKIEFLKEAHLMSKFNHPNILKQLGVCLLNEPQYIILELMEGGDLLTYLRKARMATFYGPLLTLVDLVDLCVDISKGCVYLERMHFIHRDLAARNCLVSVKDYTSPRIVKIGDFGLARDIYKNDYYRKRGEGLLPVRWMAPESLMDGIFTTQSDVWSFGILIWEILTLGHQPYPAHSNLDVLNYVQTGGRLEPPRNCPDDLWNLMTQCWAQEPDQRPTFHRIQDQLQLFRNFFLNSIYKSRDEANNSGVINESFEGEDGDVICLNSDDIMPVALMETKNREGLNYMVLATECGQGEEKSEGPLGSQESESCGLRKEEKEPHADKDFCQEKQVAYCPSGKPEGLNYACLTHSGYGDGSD

NTRK2 (human) = NTRK2 (human) (UniProt Q16620)
PIM2 (human) = PIM2 (human) (UniProt Q9P1W9)
PIM2 (human), sequence (Q9P1W9 whole entry, looked up): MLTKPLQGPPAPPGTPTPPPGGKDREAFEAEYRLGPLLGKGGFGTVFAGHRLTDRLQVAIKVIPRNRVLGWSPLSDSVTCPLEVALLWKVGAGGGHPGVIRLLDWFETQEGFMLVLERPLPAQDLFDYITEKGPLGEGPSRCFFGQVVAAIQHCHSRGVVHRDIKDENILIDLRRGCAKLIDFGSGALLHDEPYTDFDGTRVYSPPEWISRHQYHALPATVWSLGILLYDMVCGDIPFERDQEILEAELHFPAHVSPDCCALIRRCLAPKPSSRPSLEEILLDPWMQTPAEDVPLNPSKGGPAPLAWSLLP

PRKACB (human) = PRKACB (human) (UniProt P22694)
FGFR1 (human) = FGFR1 (human) (UniProt P11362)
PRKCB1 (human) = PRKCB1 (human) (UniProt P05771)
DYRK2 (human) = DYRK2 (human) (UniProt Q92630)
MARK2 (human) = MARK2 (human) (UniProt Q7KZI7)
CAMK2B (human) = CAMK2B (human) (UniProt Q13554)
LATS2 (human) = LATS2 (human) (UniProt Q9NRM7)
NEK9 (human) = NEK9 (human) (UniProt Q8TD19)
NEK9 (human), sequence (Q8TD19 whole entry, looked up): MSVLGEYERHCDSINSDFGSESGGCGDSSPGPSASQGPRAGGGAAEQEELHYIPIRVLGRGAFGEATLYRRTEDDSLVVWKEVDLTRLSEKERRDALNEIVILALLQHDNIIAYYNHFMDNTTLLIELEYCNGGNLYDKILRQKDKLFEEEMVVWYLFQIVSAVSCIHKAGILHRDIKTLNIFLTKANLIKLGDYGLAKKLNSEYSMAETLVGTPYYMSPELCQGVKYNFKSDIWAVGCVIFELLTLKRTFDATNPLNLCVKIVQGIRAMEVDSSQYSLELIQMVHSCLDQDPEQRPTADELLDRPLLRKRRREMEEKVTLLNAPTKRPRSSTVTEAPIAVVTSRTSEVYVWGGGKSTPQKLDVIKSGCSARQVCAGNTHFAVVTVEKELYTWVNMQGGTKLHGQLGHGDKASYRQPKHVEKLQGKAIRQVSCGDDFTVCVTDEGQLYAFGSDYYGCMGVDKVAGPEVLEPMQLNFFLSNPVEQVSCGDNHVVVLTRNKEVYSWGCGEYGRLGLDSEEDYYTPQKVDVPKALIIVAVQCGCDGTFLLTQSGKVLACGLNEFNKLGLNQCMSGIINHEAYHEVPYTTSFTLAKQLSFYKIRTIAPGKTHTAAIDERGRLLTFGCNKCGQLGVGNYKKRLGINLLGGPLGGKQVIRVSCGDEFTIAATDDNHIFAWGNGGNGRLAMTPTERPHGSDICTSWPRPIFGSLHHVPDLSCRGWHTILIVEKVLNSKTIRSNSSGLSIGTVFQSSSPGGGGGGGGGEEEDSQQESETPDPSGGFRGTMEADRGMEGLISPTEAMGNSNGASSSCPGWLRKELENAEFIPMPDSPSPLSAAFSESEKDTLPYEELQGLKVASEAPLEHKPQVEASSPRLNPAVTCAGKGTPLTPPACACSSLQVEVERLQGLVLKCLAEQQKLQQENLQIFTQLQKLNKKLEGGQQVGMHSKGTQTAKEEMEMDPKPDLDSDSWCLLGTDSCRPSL

PAK3 (human) = PAK3 (human) (UniProt O75914)
WNK1 (human) = WNK1 (human) (UniProt Q9H4A3)
JAK1 JH1 JH2 (human) = JAK1 JH1 JH2 (human) (UniProt P23458)
EPHB1 (human) = EPHB1 (human) (UniProt P54762)
ROCK2 (human) = ROCK2 (human) (UniProt O75116)
STK24 (human) = STK24 (human) (UniProt Q9Y6E0)
STK24 (human), sequence (Q9Y6E0 whole entry, looked up): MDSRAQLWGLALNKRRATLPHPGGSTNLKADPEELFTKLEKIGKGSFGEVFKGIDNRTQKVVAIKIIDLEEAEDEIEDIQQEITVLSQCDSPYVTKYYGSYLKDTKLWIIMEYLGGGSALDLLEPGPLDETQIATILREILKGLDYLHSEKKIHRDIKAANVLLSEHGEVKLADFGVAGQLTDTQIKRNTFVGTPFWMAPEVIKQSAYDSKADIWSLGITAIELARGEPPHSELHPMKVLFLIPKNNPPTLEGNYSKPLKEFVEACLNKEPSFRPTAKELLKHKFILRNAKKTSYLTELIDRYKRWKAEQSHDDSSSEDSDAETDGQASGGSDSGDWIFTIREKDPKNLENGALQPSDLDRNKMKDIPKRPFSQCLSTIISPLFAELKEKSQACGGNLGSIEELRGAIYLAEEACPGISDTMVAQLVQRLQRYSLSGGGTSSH

MET (human) = MET (human) (UniProt P08581)
STK3 (human) = STK3 (human) (UniProt Q13188)
MAPK13 (human) = MAPK13 (human) (UniProt O15264)
CHEK1 (human) = CHEK1 (human) (UniProt O14757)
CHEK1 (human), sequence (O14757 whole entry, looked up): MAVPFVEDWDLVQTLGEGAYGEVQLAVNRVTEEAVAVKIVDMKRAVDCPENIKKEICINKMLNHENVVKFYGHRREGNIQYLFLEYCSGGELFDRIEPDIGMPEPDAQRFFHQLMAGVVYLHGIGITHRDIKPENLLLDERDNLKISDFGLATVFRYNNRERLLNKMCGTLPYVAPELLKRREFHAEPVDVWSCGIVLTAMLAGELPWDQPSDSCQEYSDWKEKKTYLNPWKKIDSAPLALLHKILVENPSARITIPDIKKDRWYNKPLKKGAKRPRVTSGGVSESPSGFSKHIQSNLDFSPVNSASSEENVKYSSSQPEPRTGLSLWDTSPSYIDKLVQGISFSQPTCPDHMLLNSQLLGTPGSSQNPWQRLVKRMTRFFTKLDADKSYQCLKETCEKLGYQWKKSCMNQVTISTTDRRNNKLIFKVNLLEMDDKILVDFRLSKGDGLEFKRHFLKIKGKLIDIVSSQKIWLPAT

EPHA7 (human) = EPHA7 (human) (UniProt Q15375)
EPHA8 (human) = EPHA8 (human) (UniProt P29322)
CAMK2A (human) = CAMK2A (human) (UniProt Q9UQM7)
ERBB2 (human) = ERBB2 (human) (UniProt P04626)
TXK (human) = TXK (human) (UniProt P42681)
TXK (human), sequence (P42681 whole entry, looked up): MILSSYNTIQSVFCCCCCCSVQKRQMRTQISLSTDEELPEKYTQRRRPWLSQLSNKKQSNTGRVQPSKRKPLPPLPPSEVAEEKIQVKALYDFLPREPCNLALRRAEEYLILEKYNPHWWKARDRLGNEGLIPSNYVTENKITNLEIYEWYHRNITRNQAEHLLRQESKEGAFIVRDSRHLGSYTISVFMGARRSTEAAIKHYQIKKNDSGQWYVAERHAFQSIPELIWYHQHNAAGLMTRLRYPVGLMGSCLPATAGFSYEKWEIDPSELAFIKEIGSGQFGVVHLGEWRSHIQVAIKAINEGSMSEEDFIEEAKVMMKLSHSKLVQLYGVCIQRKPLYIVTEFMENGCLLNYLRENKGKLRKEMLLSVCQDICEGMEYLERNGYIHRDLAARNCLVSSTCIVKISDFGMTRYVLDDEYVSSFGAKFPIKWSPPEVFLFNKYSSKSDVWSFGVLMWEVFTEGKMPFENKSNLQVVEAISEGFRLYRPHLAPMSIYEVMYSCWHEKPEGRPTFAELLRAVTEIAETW

RPS6KA1 KD1 KD2 (human) = RPS6KA1 KD1 KD2 (human) (UniProt Q15418)
PDGFRB (human) = PDGFRB (human) (UniProt P09619)
CSF1R (human) = CSF1R (human) (UniProt P07333)

In the case of `CNC(=O)c1cc(Oc2ccc(NC(=O)Nc3ccc(Cl)c(C(F)(F)F)c3)cc2)ccn1`, the inhibition (NEK1 (human); compound 0.02 µM) is reported as -5.2%, the inhibition (NEK1 (human); compound 0.2 µM) is reported as -6.3% and the inhibition (IRAK4 (human); compound 0.02 µM) is reported as -5.9%. The inhibition (IRAK4 (human); compound 0.2 µM) was -4.6%, the inhibition (RPS6KB1 (human); compound 0.02 µM) was 8.1% and the inhibition (RPS6KB1 (human); compound 0.2 µM) was 48.1%. The inhibition (AURKA (human); compound 0.02 µM) was -1.5%, the inhibition (AURKA (human); compound 0.2 µM) was 5.4% and the inhibition (ROS1 (human); compound 0.2 µM) was 1.3%. The inhibition (NTRK2 (human); compound 0.02 µM) was 3.2%, the inhibition (NTRK2 (human); compound 0.2 µM) was 37.4% and the inhibition (PIM2 (human); compound 0.02 µM) was -0.2%. For the same compound, the inhibition (PIM2 (human); compound 0.2 µM) was 1.2%, the inhibition (PRKACB (human); compound 0.02 µM) was -7.7% and the inhibition (PRKACB (human); compound 0.2 µM) was 3.1%. The inhibition (FGFR1 (human); compound 0.02 µM) was 5.3%, the inhibition (FGFR1 (human); compound 0.2 µM) was 49.9% and the inhibition (PRKCB1 (human); compound 0.02 µM) was -0.2% and -0.6%. For the same compound, the inhibition (PRKCB1 (human); compound 0.2 µM) was 22% and 17.2%, the inhibition (DYRK2 (human); compound 0.02 µM) was -7.8% and the inhibition (DYRK2 (human); compound 0.2 µM) was 6.1%. The inhibition (MARK2 (human); compound 0.02 µM) was -10.6%, the inhibition (MARK2 (human); compound 0.2 µM) was -9.7% and the inhibition (CAMK2B (human); compound 0.02 µM) was -6.4%. For the same compound, the inhibition (CAMK2B (human); compound 0.2 µM) was -7%, the inhibition (LATS2 (human); compound 0.02 µM) was -4.4% and the inhibition (LATS2 (human); compound 0.2 µM) was 2.8%. It also gave an inhibition (NEK9 (human); compound 0.02 µM) of -3.7%, an inhibition (NEK9 (human); compound 0.2 µM) of -5.9% and an inhibition (PAK3 (human); compound 0.02 µM) of -1.4%. It also gave an inhibition (PAK3 (human); compound 0.2 µM) of 2.1%, an inhibition (WNK1 (human); compound 0.02 µM) of -4.5% and an inhibition (WNK1 (human); compound 0.2 µM) of 6.3%. For the same compound, the inhibition (JAK1 JH1 JH2 (human); compound 0.02 µM) was -1.7%, the inhibition (JAK1 JH1 JH2 (human); compound 0.2 µM) was 3.1% and the inhibition (EPHB1 (human); compound 0.02 µM) was -1.8%. For the same compound, the inhibition (EPHB1 (human); compound 0.2 µM) was 8.5%, the inhibition (ROCK2 (human); compound 0.02 µM) was -2% and the inhibition (ROCK2 (human); compound 0.2 µM) was 2.8%. The inhibition (STK24 (human); compound 0.02 µM) was -3.9%, the inhibition (STK24 (human); compound 0.2 µM) was 5.6% and the inhibition (MET (human); compound 0.02 µM) was -12.2%. It also gave an inhibition (MET (human); compound 0.2 µM) of 4.4%, an inhibition (STK3 (human); compound 0.02 µM) of -3.3% and an inhibition (STK3 (human); compound 0.2 µM) of -1.9%. The inhibition (MAPK13 (human); compound 0.02 µM) was -3.5%, the inhibition (MAPK13 (human); compound 0.2 µM) was -0.7% and the inhibition (CHEK1 (human); compound 0.02 µM) was -2.7%. The inhibition (CHEK1 (human); compound 0.2 µM) was 5.3%, the inhibition (EPHA7 (human); compound 0.02 µM) was 2% and the inhibition (EPHA7 (human); compound 0.2 µM) was 26.5%. It also gave an inhibition (EPHA8 (human); compound 0.02 µM) of 2.5%, an inhibition (EPHA8 (human); compound 0.2 µM) of 37.2% and an inhibition (CAMK2A (human); compound 0.02 µM) of -2.1%. For the same compound, the inhibition (CAMK2A (human); compound 0.2 µM) was 5.8%, the inhibition (ERBB2 (human); compound 0.02 µM) was 0.5% and the inhibition (ERBB2 (human); compound 0.2 µM) was -1.7%. For the same compound, the inhibition (TXK (human); compound 0.02 µM) was -6.1%, the inhibition (TXK (human); compound 0.2 µM) was 5.8% and the inhibition (RPS6KA1 KD1 KD2 (human); compound 0.02 µM) was -3.6%. The inhibition (RPS6KA1 KD1 KD2 (human); compound 0.2 µM) was 3.1%.

In the case of `CCN(CC)CCNC(=O)c1c(C)[nH]c(/C=C2\C(=O)Nc3ccc(F)cc32)c1C`, the inhibition (NEK1 (human); compound 0.2 µM) is reported as -2.4%, the inhibition (NEK1 (human); compound 4.0 µM) is reported as -8.5% and the inhibition (IRAK4 (human); compound 0.2 µM) is reported as 35.6%. For the same compound, the inhibition (IRAK4 (human); compound 4.0 µM) was 90.4%, the inhibition (RPS6KB1 (human); compound 0.2 µM) was 66.4% and the inhibition (RPS6KB1 (human); compound 4.0 µM) was 96.6%. It also gave an inhibition (AURKA (human); compound 0.2 µM) of 31.1%, an inhibition (AURKA (human); compound 4.0 µM) of 87.3% and an inhibition (ROS1 (human); compound 0.2 µM) of 18.4%. The inhibition (ROS1 (human); compound 4.0 µM) was 81.4%, the inhibition (NTRK2 (human); compound 0.2 µM) was 85.7% and the inhibition (NTRK2 (human); compound 4.0 µM) was 101%. It also gave an inhibition (PIM2 (human); compound 0.2 µM) of 2.5%, an inhibition (PIM2 (human); compound 4.0 µM) of 12.1% and an inhibition (PRKACB (human); compound 0.2 µM) of -0.1%. The inhibition (PRKACB (human); compound 4.0 µM) was 48.3%, the inhibition (PDGFRB (human); compound 0.2 µM) was 98.9% and the inhibition (PDGFRB (human); compound 4.0 µM) was 102%. For the same compound, the inhibition (FGFR1 (human); compound 0.2 µM) was 52.9%, the inhibition (FGFR1 (human); compound 4.0 µM) was 96.2% and the inhibition (PRKCB1 (human); compound 0.2 µM) was 0% and -1.3%. The inhibition (PRKCB1 (human); compound 4.0 µM) was 20% and 27.2%, the inhibition (DYRK2 (human); compound 0.2 µM) was 25% and the inhibition (DYRK2 (human); compound 4.0 µM) was 87.4%. It also gave an inhibition (CAMK2B (human); compound 0.2 µM) of 5.2%, an inhibition (CAMK2B (human); compound 4.0 µM) of 66.5% and an inhibition (NEK9 (human); compound 0.2 µM) of 0%. The inhibition (NEK9 (human); compound 4.0 µM) was 20.7%, the inhibition (WNK1 (human); compound 0.2 µM) was 3.2% and the inhibition (WNK1 (human); compound 4.0 µM) was 4.9%. It also gave an inhibition (JAK1 JH1 JH2 (human); compound 0.2 µM) of 10.9%, an inhibition (JAK1 JH1 JH2 (human); compound 4.0 µM) of 70.4% and an inhibition (EPHB1 (human); compound 0.2 µM) of 34.5%. The inhibition (EPHB1 (human); compound 4.0 µM) was 89%, the inhibition (ROCK2 (human); compound 0.2 µM) was 20% and the inhibition (ROCK2 (human); compound 4.0 µM) was 76.7%. It also gave an inhibition (CSF1R (human); compound 0.2 µM) of 67.9%, an inhibition (CSF1R (human); compound 4.0 µM) of 98.9% and an inhibition (STK24 (human); compound 0.2 µM) of 47.8%. For the same compound, the inhibition (STK24 (human); compound 4.0 µM) was 95.7%, the inhibition (MET (human); compound 0.2 µM) was 9% and the inhibition (MET (human); compound 4.0 µM) was 65.3%. For the same compound, the inhibition (STK3 (human); compound 0.2 µM) was 51.4%, the inhibition (STK3 (human); compound 4.0 µM) was 95.7% and the inhibition (MAPK13 (human); compound 0.2 µM) was -3.4%. It also gave an inhibition (MAPK13 (human); compound 4.0 µM) of -4.3%, an inhibition (CHEK1 (human); compound 0.2 µM) of 59.3% and an inhibition (CHEK1 (human); compound 4.0 µM) of 95.2%. The inhibition (EPHA7 (human); compound 0.2 µM) was 19.8%, the inhibition (EPHA7 (human); compound 4.0 µM) was 82% and the inhibition (EPHA8 (human); compound 0.2 µM) was -0.2%. For the same compound, the inhibition (EPHA8 (human); compound 4.0 µM) was 27.7%, the inhibition (CAMK2A (human); compound 0.2 µM) was 24.5% and the inhibition (CAMK2A (human); compound 4.0 µM) was 89%. For the same compound, the inhibition (ERBB2 (human); compound 0.2 µM) was -3.2%, the inhibition (ERBB2 (human); compound 4.0 µM) was -2.9% and the inhibition (TXK (human); compound 0.2 µM) was 6.1%. It also gave an inhibition (TXK (human); compound 4.0 µM) of 43% and an inhibition (RPS6KA1 KD1 KD2 (human); compound 0.2 µM) of 53.9%.
